One molecule from patent US20240174622A1, “COMPOUND AND RADIOACTIVE LABELING COMPOUND” (NIHON MEDI-PHYSICS CO., LTD., priority 2021, published 2024) can be followed below.

The test system of the test is PC-3 cells (PSMA-negative, human prostate cancer). In words: Binding assay using cultured cells (PC-3). It is filed as cell-based. Conditions: 37° C., 1 hour. How it is done: LNCaP cells (PSMA-positive, human prostate cancer) and PC-3 cells (PSMA-negative, human prostate cancer) were used. These cells were purchased from American Type Culture Collection and DS Biomedical, respectively. Each of the cells were cultured in RPMI 1640, which is manufactured by NACALAI TESQUE, INC. and contains antibiotics (penicillin and streptomycin) and 10% inactivated fetal bovine serum, at 37° C. under 5% CO2.
The LNCaP cells and PC-3 cells were each seeded on a 12 well plate at 4.0×10^5 cells/well, and left standing at 37° C. under 5% CO2 for 48 hours.
The culture medium was removed, and an assay medium (0.5% FBS-containing RPMI 1640 medium) solution (1 mL) containing [^111In]In-PSMA-DA1 or [^111In]In-PSMA-DB (37 kBq) was added. Thereafter, the plate was allowed to stand at 37° C. under 5% CO2 for 1 hour. […]
The radioactivity for each of the assay medium and the cell lysate was measured with a gamma counter. Separately, the total protein concentration in the cell lysate was calculated using BCA Protein Assay Kit, which is manufactured by Thermo Fisher Scientific K.K. The value (% ID/mg protein) obtained by dividing the percentage (% ID) of the sample's radioactivity amount to the added radioactivity amount by the total protein amount was calculated for each sample. […]

Take `O=C([O-])CN1CCN(C(CCC(=O)NCCC(=O)N2Cc3ccccc3-c3c(nnn3CCOCCOCCOCCOCCC(=O)NCCCC[C@H](NC(=O)N[C@@H](CCC(=O)O)C(=O)O)C(=O)O)-c3ccccc32)C(=O)[O-])CCN(CC(=O)[O-])CCN(C(CCC(=O)N[C@@H](CCCCNC(=O)CCCc2ccc(I)cc2)C(=O)O)C(=O)[O-])CC1.[111In+3]` (stereo partly shown) [[^111In]In-PtDA]: the “binding to PC-3 cells” value came out at 0.15 % ID/mg protein.
